Test results: US20170319572A1, “COMBINATION DRUG TREATMENT FOR HEPATITIS C INFECTION” (JANSSEN PHARMACEUTICALS, INC., priority 2015, published 2017)
Entries after “also recorded” stand apart in the source; their conditions may differ.

Legend:
[1] = Drug-drug interaction study in humans (Phase-1, open-label, two-group, fixed-sequence, PK); settings: for increase of exposure caused by Odalasvir: co-administration of Odalasvir; for increase of exposure caused by SMV: co-administration of SMV
Experimental: A drug-drug interaction study (DDI) study is a study designed to investigate whether a drug alters the pharmacokinetics of another drug or drugs or their metabolites.
Compound (III)—Subjects received 800 mg of Compound (III) once daily from Days 1-3, Days 11-13, and Days 21-23. PK blood samples for determination of Compound (III) and metabolite concentrations were collected in reference to the Day 3, Day 13, and Day 23 doses.
Simeprevir—Subjects received 150 mg of Simeprevir (SMV) once daily from Days 4-23. PK blood samples for determination of SMV concentrations were collected in reference to the Day 10, Day 13, Day 20, and Day 23 doses.
Odalasvir—Subjects received a loading dose of 150 mg on Day 14, and 50 mg of Odalasvir once daily from Days 15-23. PK blood samples for determination of Odalasvir concentrations were collected in reference to the Day 20 and Day 23 doses.
Compound (III)—Subjects received 800 mg of Compound (III) once daily from Days 1-3, Days 11-13 and Days 21-23. PK blood samples for determination of Compound (III) and metabolite concentrations were collected in reference to the Day 3, Day 13, and Day 23 doses.
Simeprevir—Subjects receive 150 mg of SMV once daily from Days 4-23. PK blood samples for determination of SMV concentrations were collected in reference to the Day 20 and Day 23 doses.
Odalasvir—Subjects receive a loading dose of 150 mg on Day 4, and 50 mg of Odalasvir once daily from Days 5-23. PK blood samples for determination of Odalasvir concentrations were collected in reference to the Day 10, Day 13, Day 20, and Day 23 doses.
This drug-drug interaction study was intended to assess the safety and tolerability of the described drug combinations at pre-defined time points throughout the study. Study completion/follow-up visit(s) were performed 7 and 28 days after completion of the last study assessment.
A primary objective was to evaluate the effect of multiple oral doses of Odalasvir (alone), Simeprevir (alone), and Odalasvir and Simeprevir on the multiple oral dose PK of Compound (III) (and certain metabolites thereof, such as the major metabolites in systemic circulation) in healthy volunteers. Other objectives were to evaluate the safety and tolerability of multiple oral doses of Compound (III) when administered alone and in combination with single and multiple oral doses of Odalasvir and/or Simeprevir in healthy volunteers; to determine the potential effect of Compound of Compound (III) and/or Odalasvir on the steady-state PK of Simeprevir in healthy volunteers; to determine the potential effect of Compound of Compound (III) and/or Simeprevir on the steady state PK of Odalasvir in healthy volunteers.
Various other PK parameters were estimated including: Clast, t1/2, Tmax, Tlast, CL/F, Vz/F, and λz.
The following daily doses were employed:
Odalasvir: 150 mg loading dose; 50 mg for the remainder of the study period.

[2] = Phase 2a open-label combination study, pharmacokinetics and safety; type: in vivo, human; settings: for change of exposure on reducing SMV dosing from 100 mg to 75 mg QD: in vivo
Experimental: A randomized, Phase 2a, open-label study was carried out to evaluate the safety, pharmacokinetics and efficacy of the combination of Compound (III), Odalasvir and Simeprevir in Genotype 1 treatment-naïve subjects with chronic hepatitis C. Other treatment-naïve subjects included Genotype 2, 3, 4, 5 and 6. The aim of the study was to determine the efficacy, pharmacokinetics (PK), and safety of Compound (III)+Odalasvir±SMV in HCV-infected subjects. […] Efficacy, PK and safety evaluations were conducted during and through 24 weeks post dosing. Up to 15 cohorts were enrolled; data was generated from cohorts that have completed dosing.

[3] = SMV co-administered with Digoxin (a pgp-substrate); cited from earlier work
[4] = SMV co-administered with Rosuvastatin (substrate of OATPs & BCRP); cited from earlier work
[5] = biological target: Pgp (Homo sapiens, UniProt P08183); settings: cited from earlier work
Pgp, sequence (P08183 whole entry): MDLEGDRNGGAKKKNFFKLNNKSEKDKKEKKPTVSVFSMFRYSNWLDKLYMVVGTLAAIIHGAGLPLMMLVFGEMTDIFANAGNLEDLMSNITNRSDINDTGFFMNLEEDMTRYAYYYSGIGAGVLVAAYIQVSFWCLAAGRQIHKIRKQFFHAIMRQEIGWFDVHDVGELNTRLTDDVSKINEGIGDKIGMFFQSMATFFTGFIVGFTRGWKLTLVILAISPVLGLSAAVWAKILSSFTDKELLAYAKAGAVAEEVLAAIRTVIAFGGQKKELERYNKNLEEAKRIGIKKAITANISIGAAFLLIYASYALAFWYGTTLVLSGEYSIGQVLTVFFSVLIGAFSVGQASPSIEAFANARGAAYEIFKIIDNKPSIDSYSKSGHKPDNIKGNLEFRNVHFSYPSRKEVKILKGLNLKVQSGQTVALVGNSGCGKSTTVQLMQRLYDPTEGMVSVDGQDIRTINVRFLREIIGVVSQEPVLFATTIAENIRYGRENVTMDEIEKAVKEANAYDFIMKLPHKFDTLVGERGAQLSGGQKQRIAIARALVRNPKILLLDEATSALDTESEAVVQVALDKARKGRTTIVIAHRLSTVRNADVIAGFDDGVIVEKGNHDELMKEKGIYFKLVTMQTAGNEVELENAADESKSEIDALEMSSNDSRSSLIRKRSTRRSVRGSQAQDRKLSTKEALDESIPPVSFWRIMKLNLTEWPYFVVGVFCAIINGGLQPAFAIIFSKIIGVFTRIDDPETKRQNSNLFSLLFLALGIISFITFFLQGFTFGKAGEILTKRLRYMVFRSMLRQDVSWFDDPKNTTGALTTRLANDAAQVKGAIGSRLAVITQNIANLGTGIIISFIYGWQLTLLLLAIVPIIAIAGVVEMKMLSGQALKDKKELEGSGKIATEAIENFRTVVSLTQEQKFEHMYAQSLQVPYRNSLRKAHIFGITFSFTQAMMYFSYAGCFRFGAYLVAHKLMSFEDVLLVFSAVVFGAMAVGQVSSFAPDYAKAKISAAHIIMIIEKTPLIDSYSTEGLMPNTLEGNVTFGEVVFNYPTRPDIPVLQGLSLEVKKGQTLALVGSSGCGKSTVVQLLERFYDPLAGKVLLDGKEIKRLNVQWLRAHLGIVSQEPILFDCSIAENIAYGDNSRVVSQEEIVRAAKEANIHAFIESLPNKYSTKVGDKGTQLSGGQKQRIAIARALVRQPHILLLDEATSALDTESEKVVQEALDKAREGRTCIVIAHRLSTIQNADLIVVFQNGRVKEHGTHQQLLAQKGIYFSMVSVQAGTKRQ

[6] = system: NTCP; settings: printed: other OATPs NTCP; read-out: NTCP inhibition IC50; cited from earlier work
[7] = system: CYP (any CYP); test: CYP inhibition; settings: on any CYP

Compound | increase of exposure, effect of the three Compounds ([1]; DDI study, Compound (III) + SMV + Odalasvir together) [×] | effect of Compound (III) on exposure/bioavailability ([1]; DDI study, co-administration of Compound (III)) | increase of exposure caused by Odalasvir ([1]; DDI study) [×] | increase of exposure in the combination ([1]; human in vivo study (Example 1), three drugs combined) [times] | increase of bioavailability by ODV ([1]; human subjects) [fold] | observed exposure in Cohort 1 / group (i) ([2]; Compound (III) 400 mg, ODV 50 mg QD, SMV 100 mg QD) | change of exposure on reducing SMV dosing from 100 mg to 75 mg QD [2] | change of exposure on reducing SMV dosing from 100 mg to 75 mg QD ([2]; listed as Simeprevir) | increase in exposure of Digoxin [3] [%] | increase in Rosuvastatin exposure [4] [fold] | in vitro inhibition of Pgp [5] | IC50 [6] [nM] | CYP inhibition potential [7] | increase of exposure caused by SMV ([1]; DDI study) | change of exposure on increasing Compound (III) dose from 400 to 800 mg ([2]; HCV patients)
COc1ccc2c(O[C@@H]3C[C@H]4C(=O)N[C@]5(C(=O)NS(=O)(=O)C6CC6)C[C@H]5/C=C\CCCCN(C)C(=O)[C@@H]4C3)cc(-c3nc(C(C)C)cs3)nc2c1C [SMV, Simeprevir, reference compound] | 1.6 | no apparent effect; also recorded: does not alter the bioavailability | 1.6 | 1.6 | 1.6 | higher than anticipated | decreased SMV exposure less than proportionally | decreased Simeprevir exposure less than proportionally | 35 | 3 | strong/moderate in vitro inhibition | 2200 | limited |  | 
C[C@]1(O)[C@H](n2ccc(=O)[nH]c2=O)O[C@](F)(CO)[C@H]1O [Compound A-1] |  |  | 1.5 |  |  |  |  |  |  |  |  |  |  | no apparent effect | less than proportionally
C[C@H](NP(=O)(O)OC[C@@]1(F)O[C@@H](n2ccc(=O)[nH]c2=O)[C@](C)(O)[C@@H]1O)C(=O)O [Compound A-3] |  |  | 2.6 |  |  |  |  |  |  |  |  |  |  | 1.6 × | 
